# Data reported in publication PMC5510653 (ACS chemical neuroscience, 2016).
# Experiments:
# [1] = tested on: MPTP-treated parkinsonian monkey; experiment: ECoG recordings and scoring of state of arousal and movements; format: in vivo, Rhesus monkey; settings: ML218 3 mg/kg s.c., one monkey
# [2] = tested on: MDCK-MDR1 (MDCK-Pgp) cells
# [3] = rhesus monkey, in vivo, sc, 10 mg/kg
# [4] = rhesus monkey
# [5] = tested on: haloperidol-induced catalepsy; settings: haloperidol-induced catalepsy model in rats ref 38; cited from earlier work
# [6] = tested on: electrical cardiac activities; experiment: Effects of ML218 on cardiac function; format: in vivo, Rhesus monkeys; settings: ketamine sedation
# [7] = tested on: MPTP-treated parkinsonian monkeys; experiment: Motor behavior in MPTP-treated parkinsonian monkeys; format: in vivo, Rhesus monkeys
# TH immunolabeling = experiment: Post-mortem TH immunoperoxidase staining of striatum; format: in vivo, Rhesus monkeys; settings: 7 MPTP-treated animals vs mean of 3 non-treated monkeys, mean ± SEM
# slow-wave sleep = settings: mice ref 39, 40; cited from earlier work
smiles,measurement,setting,value
CC(C)(C)CCN1C[C@@H]2C(CNC(=O)c3cc(Cl)cc(Cl)c3)[C@@H]2C1 (stereo partly shown) [ML218],mean number of movements per 5 minute of observation,"[1]; 2 hours of observation, vehicle 51.07 ± 6.42, p=0.016",25.39 ± 4.52
same,sleep ratio,"[1]; within 120 minutes, vehicle 0.09 ± 0.06, p=0.008",0.54 ± 0.06
same,Papp AB,[2],2.6e^− 6 cm/sec
same,CSF Tmax,[3],1 to 2 h
same,Fu (fraction of unbound compound in plasma),[4],0.09
same,anti-cataleptic properties,[5],anti-cataleptic properties
same,chronotropic effect (R-R interval),"[6]; 30 mg/kg s.c., ECG two hours after injection, 3 animals",minor negative chronotropic effects
same,"effects on the other ECG parameters studied (PR, RT intervals)",[6]; 10 and 30 mg/kg s.c.,no consistent effects
same,effect of adding ML218 on L-DOPA-mediated responses,[7]; ML218 3 mg/kg s.c. 60 min before L-DOPA 10 mg/kg i.m. plus 2.5 mg/kg benserazide,did not alter the L-DOPA-mediated responses
same,activity counts compared to baseline,"[7]; ML218 10 mg/kg s.c., p=0.002",reduced
same,number of movements compared to baseline,"[7]; ML218 10 mg/kg s.c., p=0.006",reduced
same,"antiparkinsonian effects (number of movements, activity counts)","[7]; ML218 1, 10 and 30 mg/kg s.c., observed from 1 hour after injection",no antiparkinsonian effects
CN1CC=C(c2ccccc2)CC1 [MPTP],reduction of TH immunolabeling in the caudate,TH immunolabeling,89 ± 3%
same,reduction of TH immunolabeling in the post-commissural putamen,TH immunolabeling,87 ± 3%
C[C@@H](NC(=O)Cc1ccc(C2CC2)cc1)c1ccc(OCC(F)(F)F)cn1 [TTA-A2],effect on slow-wave sleep,slow-wave sleep,promotes slow-wave sleep
"N[C@@H](Cc1ccc(O)c(O)c1)C(=O)O [L-DOPA, reference compound]","antiparkinsonian effects (number of movements, activity counts)","[7]; L-DOPA 5, 10, 15, 20 mg/kg i.m. in combination with benserazide","strong, dose-dependent antiparkinsonian effects"
